Calls of active or inactive are those of the source.
What was measured:
cells [1] = type: functional, cell-based
cells [2] = type: functional, cell-based; remark: listed apart in the source
[3] = target: T1, Heat shock factor protein 1 (Mus musculus, UniProt P38532); assay: decrease of HSF1-responsive luciferase luminescence – cell-based, NIH3T3, dose retest, confirmation (AID 2382); type: functional;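 also: NIH3T3 fibroblasts with HSF1-driven luciferase reporter stressed by proteasome inhibitor MG132; luminescence from HSF1-driven luciferase expression after 8 hours of MG132 stress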
T1 sequence (P38532 whole entry): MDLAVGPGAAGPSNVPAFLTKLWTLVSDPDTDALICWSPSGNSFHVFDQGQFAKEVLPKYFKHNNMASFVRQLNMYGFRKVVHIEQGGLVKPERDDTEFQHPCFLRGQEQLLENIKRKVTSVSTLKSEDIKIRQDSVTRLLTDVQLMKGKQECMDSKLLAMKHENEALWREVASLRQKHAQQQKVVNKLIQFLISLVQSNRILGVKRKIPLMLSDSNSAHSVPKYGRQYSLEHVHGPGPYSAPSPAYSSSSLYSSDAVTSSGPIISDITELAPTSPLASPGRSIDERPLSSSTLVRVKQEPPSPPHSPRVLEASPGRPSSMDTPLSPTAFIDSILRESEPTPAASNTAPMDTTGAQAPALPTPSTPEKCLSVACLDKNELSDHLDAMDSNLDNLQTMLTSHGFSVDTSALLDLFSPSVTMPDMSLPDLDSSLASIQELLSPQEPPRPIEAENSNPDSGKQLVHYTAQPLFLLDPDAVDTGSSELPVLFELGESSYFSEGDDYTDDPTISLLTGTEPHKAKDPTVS

HEK293 = assay: EBV LMP1 TES2 canonical NF-kB signalling blockers – cell-based, HEK293, luciferase, cherry-pick, dose response (AID 588343); type: functional; conditions: Homo sapiens
[4] = target: T2, Alkaline phosphatase, tissue-nonspecific isozyme (Homo sapiens, UniProt P05186); assay: potency against alkaline phosphatase TNAP – biochemical, luminescent, dose response, SAR follow-up (AID 1056)
T2 sequence (P05186 whole entry): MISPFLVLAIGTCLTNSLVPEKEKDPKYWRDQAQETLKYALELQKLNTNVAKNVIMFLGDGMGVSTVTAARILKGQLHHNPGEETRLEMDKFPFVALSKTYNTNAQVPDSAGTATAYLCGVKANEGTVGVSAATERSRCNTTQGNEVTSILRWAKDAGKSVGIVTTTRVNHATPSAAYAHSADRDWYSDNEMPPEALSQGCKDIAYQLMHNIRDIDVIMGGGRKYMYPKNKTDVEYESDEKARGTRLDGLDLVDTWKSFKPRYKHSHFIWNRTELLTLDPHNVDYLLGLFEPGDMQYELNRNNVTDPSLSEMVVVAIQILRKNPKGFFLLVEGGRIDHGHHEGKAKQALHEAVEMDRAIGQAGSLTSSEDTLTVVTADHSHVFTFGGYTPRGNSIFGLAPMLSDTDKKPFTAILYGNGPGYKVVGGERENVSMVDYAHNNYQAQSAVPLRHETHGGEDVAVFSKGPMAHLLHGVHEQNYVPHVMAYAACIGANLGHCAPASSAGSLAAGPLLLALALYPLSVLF

[5] = target: Glyceraldehyde-3-phosphate dehydrogenase (Homo sapiens, UniProt P04406)
Vero = assay: cells; type: functional; conditions: Chlorocebus sabaeus
[6] = Luminescence Cell-Based Dose Retest to Confirm Inhibitors of Cancer Stem Cells. [Related pubchem assays (depositor defined):AID2717, AID2721]; type: functional; conditions: Homo sapiens
Troponin, cardiac muscle = Troponin, cardiac muscle (Homo sapiens, UniProt P19429+P45379+P63316); assay: Fluorescence-based biochemical high throughput dose response assay for activators of the calcium sensitivity of cardiac Regulated Thin Filaments (RTF). [Related pubchem assays (depositor defined):AID493008, AID493018, AID504382, AID504383]; type: protein-complex assay
HeLa = assay: ATP-based viability loss in HeLa cells – cell-based, CellTiter-Glo luminescence, cherry-pick samples, cytotoxicity control for MITF activator project, dose response (AID 540259); type: functional; conditions: Homo sapiens
[7] = target: T3, Microphthalmia-associated transcription factor (Homo sapiens, UniProt O75030); assay: reducers of TRPM1 reporter luminescence, concentration series – cell-based, SK-MEL-5, cherry-picked, set 3, MITF inhibitor project, dose response (AID 493073); type: functional;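 also: SK-MEL-5 melanoma cells with luciferase driven by the MITF target TRPM1 promoter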
T3 sequence (O75030 whole entry): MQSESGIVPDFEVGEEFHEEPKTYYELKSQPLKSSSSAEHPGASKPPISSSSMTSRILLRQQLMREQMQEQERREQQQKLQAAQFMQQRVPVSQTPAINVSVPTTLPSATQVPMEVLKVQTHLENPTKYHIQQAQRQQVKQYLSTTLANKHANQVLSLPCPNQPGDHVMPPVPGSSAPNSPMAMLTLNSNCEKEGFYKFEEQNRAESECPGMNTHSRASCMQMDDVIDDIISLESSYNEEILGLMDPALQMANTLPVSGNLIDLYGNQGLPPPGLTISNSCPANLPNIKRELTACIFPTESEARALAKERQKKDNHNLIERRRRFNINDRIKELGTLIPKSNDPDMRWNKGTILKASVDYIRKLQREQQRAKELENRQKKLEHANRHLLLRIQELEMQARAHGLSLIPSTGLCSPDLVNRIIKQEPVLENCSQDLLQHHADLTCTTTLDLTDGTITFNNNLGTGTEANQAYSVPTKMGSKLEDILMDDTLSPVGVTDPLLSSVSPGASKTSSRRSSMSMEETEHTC

[8] = Trypanosoma cruzi growth suppression in host cells – NIH3T3 host cells, beta-gal luminescence, confirmation (AID 2044); type: functional, cell-based;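 also: intracellular parasites grown in NIH/3T3 mouse fibroblasts as host cells; luminescent beta-galactosidase reporter signal from transgenic T. cruzi replicating inside host cells; inhibitors lower the luminescence signal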
[9] = NIH3T3 cell viability loss – ATP luminescence, mouse fibroblasts, counter-screen, dose response (AID 2010); type: functional, cell-based;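 also: cells exposed to compound for about 90 hours before reading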
[10] = target: T4, Replicative DNA helicase DnaB (Mycobacterium tuberculosis, UniProt P9WMR3); assay: DnaB intein splicing inhibitors, dose response, biochemical, cell-free fluorescence (AID 449749); type: functional
T4 sequence (P9WMR3 whole entry): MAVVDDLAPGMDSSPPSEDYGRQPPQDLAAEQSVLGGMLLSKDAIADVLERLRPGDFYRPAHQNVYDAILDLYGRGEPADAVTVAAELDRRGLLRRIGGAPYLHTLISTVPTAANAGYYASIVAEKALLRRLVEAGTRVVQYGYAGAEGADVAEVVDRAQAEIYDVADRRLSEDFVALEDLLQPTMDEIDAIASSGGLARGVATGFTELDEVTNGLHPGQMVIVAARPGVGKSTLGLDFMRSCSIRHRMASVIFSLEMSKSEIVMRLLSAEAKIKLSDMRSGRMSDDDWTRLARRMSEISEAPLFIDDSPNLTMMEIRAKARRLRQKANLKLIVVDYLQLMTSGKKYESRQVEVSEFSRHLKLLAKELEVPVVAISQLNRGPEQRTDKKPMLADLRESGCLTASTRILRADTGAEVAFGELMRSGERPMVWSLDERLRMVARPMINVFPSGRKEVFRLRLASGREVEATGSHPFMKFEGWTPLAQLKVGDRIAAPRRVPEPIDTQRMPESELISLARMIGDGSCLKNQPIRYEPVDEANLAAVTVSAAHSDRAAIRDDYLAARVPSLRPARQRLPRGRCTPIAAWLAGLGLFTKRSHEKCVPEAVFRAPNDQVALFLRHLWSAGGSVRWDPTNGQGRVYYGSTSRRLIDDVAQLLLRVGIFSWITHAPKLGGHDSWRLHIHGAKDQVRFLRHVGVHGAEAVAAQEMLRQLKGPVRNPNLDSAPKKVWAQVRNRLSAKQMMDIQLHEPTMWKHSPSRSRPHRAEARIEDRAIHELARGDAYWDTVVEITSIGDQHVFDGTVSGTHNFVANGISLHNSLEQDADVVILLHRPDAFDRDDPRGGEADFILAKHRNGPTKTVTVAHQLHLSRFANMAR

Protein RecA = target: T5, Protein RecA (Mycobacterium tuberculosis, UniProt P9WHJ3); assay: Fluorescence Cell-Free Homogeneous Dose Retest to Identify Inhibitors of RecA-Intein Splicing Activity. [Related pubchem assays (depositor defined):AID2097, AID2223, AID489010, AID492950]; type: functional
T5 sequence (P9WHJ3 whole entry): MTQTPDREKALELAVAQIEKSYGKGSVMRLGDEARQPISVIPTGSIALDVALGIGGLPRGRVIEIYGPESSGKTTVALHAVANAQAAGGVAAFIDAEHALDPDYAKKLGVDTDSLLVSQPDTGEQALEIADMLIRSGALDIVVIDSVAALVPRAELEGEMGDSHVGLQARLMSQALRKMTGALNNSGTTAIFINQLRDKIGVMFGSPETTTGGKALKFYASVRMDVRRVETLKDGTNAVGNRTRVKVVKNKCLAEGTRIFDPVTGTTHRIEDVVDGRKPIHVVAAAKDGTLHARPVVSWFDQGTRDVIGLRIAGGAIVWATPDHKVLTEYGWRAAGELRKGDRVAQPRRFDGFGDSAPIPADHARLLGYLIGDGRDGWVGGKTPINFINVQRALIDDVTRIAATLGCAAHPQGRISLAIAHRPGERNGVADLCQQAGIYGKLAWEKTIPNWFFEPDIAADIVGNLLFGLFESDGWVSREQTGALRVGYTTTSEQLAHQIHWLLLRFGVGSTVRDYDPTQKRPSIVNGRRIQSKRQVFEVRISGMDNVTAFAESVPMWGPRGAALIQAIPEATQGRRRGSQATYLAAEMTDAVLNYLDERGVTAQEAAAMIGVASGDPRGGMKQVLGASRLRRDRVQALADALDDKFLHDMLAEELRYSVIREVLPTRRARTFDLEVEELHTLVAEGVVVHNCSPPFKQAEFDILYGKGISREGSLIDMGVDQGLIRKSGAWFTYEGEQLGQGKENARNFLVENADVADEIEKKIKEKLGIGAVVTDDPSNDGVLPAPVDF

Cytochrome P450 3A4 = Cytochrome P450 3A4 (Homo sapiens, UniProt P08684);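 also: CYP3A4 tested as one member of a cytochrome P450 panel screen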

## C[C@@H](C(=O)Nc1ccc2c(c1)OCCO2)n1c(=O)[nH]c2ccccc2c1=O
Cells [1]
  EC50: > 350 µM (not active)
Cells [2]
  EC50: > 350 µM (not active)
[3]
  EC50: 0.377 µM (active)
HEK293
  AC50: 6.08 µM (active)

## Cc1ccc(-c2cc(C(=O)O)[nH]n2)cc1C
[4]
  IC50: 62.9 µM (active)
[5]
  IC50: > 100 µM (not active)

## N#Cc1c(NC(=O)CCCC(=O)O)sc2c1CCCCC2
HEK293
  AC50: 4.36 µM (active)

## CC1=NN(c2ccccc2)C(=O)/C1=C/C=C/c1ccccc1
Vero
  CC50: 11.3 µM (active)
[6]
  AC50: 2.41 µM (active)

## COc1ccccc1-c1nnc(SCc2nc3ccccc3s2)n1C
Troponin, cardiac muscle
  EC50: > 71.5 µM (inactive)

## CC1CCC(NC(=O)c2cc3ccccc3cc2O)CC1 (centres undefined)
HeLa
  AC50: 35.2 µM (active)

## COc1ccc(CCNC(=O)COC(=O)c2cc(=O)[nH]c3ccccc23)cc1
Troponin, cardiac muscle
  EC50: > 71.5 µM (inactive)

## COc1cc(OC)cc(-c2oc(=O)c3cc(OC)c(OC)cc3c2C(F)(F)F)c1
[7]
  AC50: 12.8 µM (active)

## CCN(CC)S(=O)(=O)c1cccc(C(=O)N/N=C/c2ccc([N+](=O)[O-])o2)c1
[8]
  EC50: 0.218 µM (active)
[9]
  EC50: 13.3 µM (active)
[7]
  AC50: 14.1 µM (active)

## CN(C(=O)C(Cl)Cl)c1ccc(OC(=O)c2ccco2)cc1 [DILOXANIDE FUROATE]
[10]
  AC50: 13.9 µM (active)
Protein RecA
  EC50: 10.3 µM (active)
Cytochrome P450 3A4
  AC50: inconclusive
